# Read-outs that look alike come from different tables or passages of the source.
# Columns and labels:
# [1] = test system: HER3 signal sequence plus 4 amino acids fused to Gaussia Luciferase (HER3-ss+4aa/Gaussia Luciferase); assay: Dox Induced HER3-ss-Gluc Assay; type: cell-based; conditions: 24 hr, doxycycline induced, Flp-In 293 T-REx cells; read-out: 24 hr Dox Inducible Her3(ss + 4) Gluc 293FRT/TO: Mean 1050
# Description: FIp-In 293 T-REx™ cells were transfected with pcDNA™5/FRT/TO plasmid inserted with cDNA encoding Gaussia Luciferase fused to the 3′ end of cDNA encoding HER3 signal sequence plus 4 amino acids (N-[…]-C) (SEQ ID NO: 2). Transfected cells were selected for resistance to the selectable markers Hygromycin and Blasticidin to create a stable cell line that contained the HER3-ss+4aa/Gaussia Luciferase cDNA insert whose expression was regulated under the T-REx™ system. The day before assay, cells were trypsinized and plated in 384-well tissue culture plates. The next day, compound dilutions in DMSO/media containing doxycycline were added to the wells and incubated at 37° C., 5% CO2.
# For chemical structures that include one or more stereoisomers, but are illustrated without indicating stereochemistry, the assay data refers to a mixture of stereoisomers.
# [2] = In Vitro Microsome Stability Assay (monkey); type: in vitro ADME
# How it was run: (§1)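 The value reported is the percentage of parent left after 30 min, calculated from analyte/IS peak-area ratios relative to time zero by LC-MS/MS. Incubations ran at 37° C in 0.1 M potassium phosphate with NADPH and microsomes (stock 20 mg/mL), with compound added from a 0.25 mM DMSO stock. Acetonitrile containing IS stopped the reactions.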
# [3] = In Vitro Microsome Stability Assay (mouse); type: in vitro ADME
# How it was run: as §1
# [4] = In Vitro Microsome Stability Assay (rat); type: in vitro ADME
# How it was run: as §1
# [5] = test system: full length TNFα (amino acids 1-233) fused to Gaussia Luciferase; assay: Dox Induced TNFα-FL-Gluc Assay; type: cell-based; conditions: 24 hr, read-out: 24 hr Dox Inducible TNFaFLGluc 293FRT/TO: Mean IC50
# How it was run: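 Compounds diluted in DMSO/medium with doxycycline were incubated at 37° C, 5% CO2 with 293 T-REx cells stably carrying a Tet-regulated TNFα(1-233)-Gaussia luciferase construct. Data for structures drawn without stereochemistry refer to stereoisomer mixtures.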
# [6] = test system: multiple myeloma cell line NCl-H929; assay: H929 Cell Viability Assay; type: cell-based, human; conditions: Homo sapiens, NCI-H929, 48 h
# How it was run: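 Viability was determined by CellTiter-Glo luminescence after a 48 h, 37 °C exposure of NCI-H929 cells to serial compound dilutions in medium containing 10% FBS. Where stereochemistry is not shown, values refer to a mix of stereoisomers.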
# [7] = test system: full length IL-2 (amino acids 1-153) fused to Gaussia Luciferase; assay: Dox Induced IL2-FL-Gluc Assay; type: cell-based; conditions: 24 hr, read-out: 24 hr Dox Inducible IL2FLGluc 293FRT/TO: Mean IC50
# How it was run: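 Compounds in DMSO/media with doxycycline were added to cells plated the previous day and incubated at 37° C, 5% CO2. Cells: stable Flp-In 293 T-REx line, Dox-regulated expression of IL-2 (aa 1-153) fused at its C-terminus to Gaussia luciferase.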
# [8] = test system: multiple myeloma cell line U266B1; assay: U266 Cell Viability Assay; type: cell-based, human; conditions: Homo sapiens, U-266, 48 hr
# How it was run: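 Viability was measured by CellTiter-Glo luminescence after 48 h compound exposure at 37° C, 5% CO2. The cells were U266B1 multiple myeloma cells grown in RPMI 1640 plus 10% FBS. Where stereochemistry is not shown, values apply to the stereoisomer mixture.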
# [9] = In Vitro Microsome Stability Assay (human); type: in vitro ADME
# How it was run: as §1
# [10] = test system: PD1 signal sequence plus 10 amino acids fused to Gaussia Luciferase (PD1-ss+10aa/Gaussia Luciferase); assay: Dox Induced PD1-ss-Gluc Assay; type: cell-based; conditions: 24 hr, read-out: 24 hr Dox Inducible PD1ssGluc 293FRT/TO: Mean IC50
# How it was run: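 Compound dilutions in DMSO/media containing doxycycline were applied to a stable, inducible 293 T-REx line carrying the luciferase fusion, then incubated at 37 °C, 5% CO2. Where stereochemistry is not drawn, values relate to isomer mixtures.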
# [11] = monkey liver microsomes, 30 min w/ NADPH
# [12] = mouse liver microsomes, 30 min w/ NADPH
# [13] = rat liver microsomes, 30 min w/ NADPH
# [14] = human liver microsomes, 30 min w/ NADPH
SMILES,IC50 [1] [µM],"Liver Microsome Stability-% Left after 30 min w/ NADPH (%) Monkey [2, 11] [%]","Liver Microsome Stability-% Left after 30 min w/ NADPH (%) Mouse [3, 12] [%]","Liver Microsome Stability-% Left after 30 min w/ NADPH (%) Rat [4, 13] [%]","IC50 ([5]; Dox inducible, 293FRT/TO cells) [µM]","EC50 ([6]; H929, Celltiter-Glo) [µM]","IC50 ([7]; Dox inducible, 293FRT/TO cells) [µM]","EC50 ([8]; U266, Celltiter-Glo) [µM]","Liver Microsome Stability-% Left after 30 min w/ NADPH (%) Human [9, 14] [%]","IC50 ([10]; Dox inducible, 293FRT/TO cells) [µM]","Liver Microsome Stability-% Left after 30 min w/ NADPH (%) Monkey ([2]; monkey, 30 min, NADPH) [%]","Liver Microsome Stability-% Left after 30 min w/ NADPH (%) Mouse ([3]; mouse, 30 min, NADPH) [%]","Liver Microsome Stability-% Left after 30 min w/ NADPH (%) Rat ([4]; rat, 30 min, NADPH) [%]",IC50 ([5]; 293FRT/TO) [µM],"EC50 ([6]; H929, read-out: 48 hr H929 Viability Celltiter-Glo: Mean EC50) [µM]",IC50 ([7]; 293FRT/TO) [µM],"EC50 ([8]; U266, read-out: 48 hr U266 Viability Celltiter-Glo: Mean EC50) [µM]","Liver Microsome Stability-% Left after 30 min w/ NADPH (%) Human ([9]; human, 30 min, NADPH) [%]",IC50 ([10]; 293FRT/TO) [µM]
"C[C@H]1CN(S(=O)(=O)c2ccc(N(C)C)cc2)CCCN(CC2CCCCC2)CCCN(S(=O)(=O)N2CCN(c3ccccc3Cl)CC2)C1 [A198, 4-{[(3S)-5-{[4-(2-chlorophenyl)piperazin-1-yl]sulfonyl}-9-(cyclohexylmethyl)-3-methyl-1,5,9-triazacyclododecan-1-yl]sulfonyl}-N,N-dimethylaniline]",0.0441,65.1,68.2,61.4,0.373,1.17,0.0533,> 25,39.2,0.0185,–,–,–,–,–,–,–,–,–
CC[C@H]1CN(S(=O)(=O)c2ccc(N(C)C)cc2)CCCN(CC2CCCCC2)CCCN(S(=O)(=O)N2CCc3cc(Cl)ccc3C2)C1 [A182],0.203,41.5,61.7,41.9,1.96,> 25,0.256,> 25,53.7,0.0788,–,–,–,–,–,–,–,–,–
COc1cc(F)cc(N2CCN(S(=O)(=O)N3CCCN(CC4CCCCC4)CCCN(S(=O)(=O)c4ccc(N(C)C)cc4)C[C@H](C)C3)C[C@H]2C)c1 [A196],0.0782,–,–,–,1.47,> 25,0.105,> 25,–,0.031,–,–,–,–,–,–,–,–,–
"C[C@H]1CN(S(=O)(=O)c2ccc(N(C)C)cc2)CCCN(CC2CCCCC2)CCCN(S(=O)(=O)N2CC[C@@H](c3ccccc3)C2)C1 [A90, 4-{[(3S)-9-(cyclohexylmethyl)-3-methyl-5-{[(3S)-3-phenylpyrrolidin-1-yl]sulfonyl}-1,5,9-triazacyclododecan-1-yl]sulfonyl}-N,N-dimethylaniline]",–,–,–,–,–,–,–,–,–,–,14.1,28.2,20.2,2.41,3.79,0.493,> 25,20.1,0.207

# More lines, now with the values ahead:
IC50 [1] [µM],"Liver Microsome Stability-% Left after 30 min w/ NADPH (%) Monkey [2, 11] [%]","Liver Microsome Stability-% Left after 30 min w/ NADPH (%) Mouse [3, 12] [%]","Liver Microsome Stability-% Left after 30 min w/ NADPH (%) Rat [4, 13] [%]","IC50 ([5]; Dox inducible, 293FRT/TO cells) [µM]","EC50 ([6]; H929, Celltiter-Glo) [µM]","IC50 ([7]; Dox inducible, 293FRT/TO cells) [µM]","EC50 ([8]; U266, Celltiter-Glo) [µM]","Liver Microsome Stability-% Left after 30 min w/ NADPH (%) Human [9, 14] [%]","IC50 ([10]; Dox inducible, 293FRT/TO cells) [µM]","Liver Microsome Stability-% Left after 30 min w/ NADPH (%) Monkey ([2]; monkey, 30 min, NADPH) [%]","Liver Microsome Stability-% Left after 30 min w/ NADPH (%) Mouse ([3]; mouse, 30 min, NADPH) [%]","Liver Microsome Stability-% Left after 30 min w/ NADPH (%) Rat ([4]; rat, 30 min, NADPH) [%]",IC50 ([5]; 293FRT/TO) [µM],"EC50 ([6]; H929, read-out: 48 hr H929 Viability Celltiter-Glo: Mean EC50) [µM]",IC50 ([7]; 293FRT/TO) [µM],"EC50 ([8]; U266, read-out: 48 hr U266 Viability Celltiter-Glo: Mean EC50) [µM]","Liver Microsome Stability-% Left after 30 min w/ NADPH (%) Human ([9]; human, 30 min, NADPH) [%]",IC50 ([10]; 293FRT/TO) [µM],SMILES
0.117,68.3,55.3,65.0,1.1,6.73,0.145,> 25,48.6,0.0576,–,–,–,–,–,–,–,–,–,"C[C@H]1CN(S(=O)(=O)c2ccc(N(C)C)cc2)CCCN([C@H](C)C2CCCCC2)CCCN(S(=O)(=O)N2CCc3cc(Cl)ccc3C2)C1 [A191, 4-{[(3S)-5-[(6-chloro-1,2,3,4-tetrahydroisoquinolin-2-yl)sulfonyl]-9-[(1 R)-1-cyclohexylethyl]-3-methyl-1,5,9-triazacyclododecan-1-yl]sulfonyl}-N,N-dimethylaniline]"
2.15,0.75,7.39,3.17,–,6.12,2.52,> 25,10.1,1.44,–,–,–,–,–,–,–,–,–,"C[C@H]1CN(S(=O)(=O)c2ccc(N(C)C)cc2)CCCNCCCN(S(=O)(=O)N2CCc3cc(Cl)ccc3C2)C1 [A183, 4-{[(3S)-5-[(6-chloro-1,2,3,4-tetrahydroisoquinolin-2-yl)sulfonyl]-3-methyl-1,5,9-triazacyclododecan-1-yl]sulfonyl}-N,N-dimethylaniline]"

# Reference: patent US11578055B2, “Triazacyclododecansulfonamide (“TCD”)-based protein secretion inhibitors” (KEZAR LIFE SCIENCES, priority 2018, dated 2023)
